Our source for the TGI values is PubChem BioAssay (NCI).

Molecules are shown by their SMILES.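 In this assay, cells in 96-well plates receive the compound at five concentrations for 48 hours. Endpoints are linearly interpolated between the surrounding concentrations. TGI: total growth inhibition.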 Bounds are passed on as bounds.

Among the test systems are SF-295 CNS; OVCAR-4 ovarian; MOLT-4 leukemia; SF-539 CNS; EKVX NSCLC; UO-31 renal; TK-10 renal; CCRF-CEM leukemia; M14 melanoma; A549 NSCLC.
Common to all, as to experiment: NCI tumour cell line growth inhibition, 48 h

`Fc1ccc(C2NC(=S)NC3=C2CCOc2c3ccc3ccccc23)cc1` (stereo not given): the TGI in the test on SF-295 CNS, in the test on OVCAR-4 ovarian, in the test with MOLT-4 leukemia, in the test on SF-539 CNS, in the test on EKVX NSCLC and with UO-31 renal was over 100 µM in each case. Also, the TGI in the test with TK-10 renal, in the test on CCRF-CEM leukemia, in the test with M14 melanoma and in the test with A549 NSCLC was over 100 µM each time.
On to `Cc1ccc(C2(N3CCCC3)OC(C)(C)c3cccc4cccc2c34)cc1` (stereo not given), for which the TGI was 28 µM in the test on SF-295 CNS; 27.6 µM in the test on OVCAR-4 ovarian; over 100 µM in the test with MOLT-4 leukemia; 32.1 µM with SF-539 CNS; 24 µM in the test with EKVX NSCLC; 28.3 µM in the test on UO-31 renal. For the same compound, the TGI was 38.6 µM in the test on TK-10 renal, over 100 µM in the test with CCRF-CEM leukemia, 34 µM in the test with M14 melanoma and 24.6 µM with A549 NSCLC.
For the compound `N#CCN1CCCCCc2ccccc21`, the TGI with SF-295 CNS, in the test on OVCAR-4 ovarian, with MOLT-4 leukemia, with SF-539 CNS, with EKVX NSCLC and with UO-31 renal was over 100 µM in each case. Moreover, the TGI with TK-10 renal, with CCRF-CEM leukemia, in the test on M14 melanoma and with A549 NSCLC was over 100 µM each time.
As for `CC(=O)Nc1ccc(N2C(=O)CS(=O)(=O)C2c2cccc(Oc3ccccc3)c2)cc1` (stereo not given), the TGI in the test on SF-295 CNS is 36.7 µM; in the test with OVCAR-4 ovarian, 38.9 µM; with MOLT-4 leukemia it was 62.9 µM; in the test on SF-539 CNS, 36.4 µM; with EKVX NSCLC, 35.5 µM; with UO-31 renal, 33.8 µM. In addition, the TGI in the test with TK-10 renal was 41.7 µM; in the test on CCRF-CEM leukemia, over 100 µM; with M14 melanoma it was 33.9 µM; in the test on A549 NSCLC, 48.8 µM.
Regarding `CC(=O)N1CC(C)(C)c2c1cc(C)c(O)c2C`, the TGI with SF-295 CNS, in the test with OVCAR-4 ovarian, in the test with MOLT-4 leukemia, with SF-539 CNS, in the test on EKVX NSCLC and in the test on UO-31 renal was over 100 µM throughout. Moreover, the TGI in the test with TK-10 renal, with CCRF-CEM leukemia, with M14 melanoma and in the test on A549 NSCLC was over 100 µM each time.
Take `COC(=O)C1=COC(C)C2C[n+]3ccc4c([nH]c5ccccc54)c3CC12` (stereo not given): the TGI with SF-295 CNS, in the test with OVCAR-4 ovarian, with MOLT-4 leukemia, in the test with SF-539 CNS, in the test with EKVX NSCLC and in the test with UO-31 renal was over 100 µM each time. The TGI in the test with TK-10 renal, in the test on CCRF-CEM leukemia, with M14 melanoma and in the test on A549 NSCLC was over 100 µM in each case.
Take `CCSCC(=O)N1CCc2c([nH]c3ccccc23)C1=O`: the TGI with SF-295 CNS, in the test on OVCAR-4 ovarian, in the test with MOLT-4 leukemia, with SF-539 CNS, with EKVX NSCLC and in the test on UO-31 renal was over 100 µM throughout. In addition, the TGI in the test with TK-10 renal, in the test with CCRF-CEM leukemia, in the test on M14 melanoma and with A549 NSCLC was over 100 µM in each case.
For the compound `N#Cc1nc(C(F)(F)F)oc1N`, the TGI in the test with SF-295 CNS, in the test on OVCAR-4 ovarian, with MOLT-4 leukemia, with SF-539 CNS, with EKVX NSCLC and in the test with UO-31 renal was over 100 µM each time. Moreover, the TGI with TK-10 renal, in the test with CCRF-CEM leukemia, with M14 melanoma and in the test with A549 NSCLC was over 100 µM in each case.
Regarding `COc1ccc2c(c1)c(=O)c1c(NCCCN(C)CCCNc3ccc4c(=O)n(CCN(C)C)c(=O)n5c6ccc(OC)cc6c(=O)c3c45)ccc3c(=O)n(CCN(C)C)c(=O)n2c31`, the TGI in the test on SF-295 CNS is 3.48 µM; in the test with OVCAR-4 ovarian, under 0.049 µM; with MOLT-4 leukemia, 0.118 µM; in the test on SF-539 CNS, 1.95 µM; with EKVX NSCLC, 1.3 µM; in the test with UO-31 renal, 1.01 µM. Also, the TGI in the test on TK-10 renal stood at 6.6 µM; in the test on CCRF-CEM leukemia it was 0.049 µM; in the test with M14 melanoma, 2.58 µM; in the test on A549 NSCLC, 1.26 µM.
Turning to `COc1ccc2c(c1)C1Oc3ccccc3CC1(O)CO2` (stereo not given), the TGI in the test with SF-295 CNS, in the test with OVCAR-4 ovarian, in the test on MOLT-4 leukemia, in the test with SF-539 CNS, with EKVX NSCLC and in the test with UO-31 renal was over 100 µM in each case. Also, the TGI in the test with TK-10 renal, with CCRF-CEM leukemia, with M14 melanoma and with A549 NSCLC was over 100 µM throughout.
`OCc1c2c(cc3c1CC1(C3)Cc3cc4c(c(CO)c3C1)CCC4)CCC2`: the TGI in the test on SF-295 CNS is 26.9 µM; in the test on OVCAR-4 ovarian, 23.5 µM; with MOLT-4 leukemia, 28.3 µM; in the test with SF-539 CNS, 32.1 µM; in the test on EKVX NSCLC, 30.5 µM; in the test on UO-31 renal, 3.22 µM. Further, the TGI with TK-10 renal came to 36.2 µM; in the test on CCRF-CEM leukemia, 25.9 µM; in the test with M14 melanoma, 32.9 µM; in the test with A549 NSCLC it was 30.9 µM.
